Laboratory results as given in US7276337B2, “Compositions and methods for visual ribonuclease detection assays” (Integrated DNA Technologies, Inc., priority 2000, dated 2007).

What was measured:
[1] = system: Substrate oligonucleotide SEQ ID NO:30; test: RNase testing of commercially obtained reagents, visual detection; format: biochemical; design: key: +++ = maximum intensity; ++ = moderate intensity; + = faint but above background; − = negative (identical to background); conditions: reagent diluted 1:10 with Assay Buffer, 50 pmoles Substrate SEQ ID NO:30, 60 minutes at 37° C., UV
Procedure: Enzymes were obtained from New England Biolabs (NEB) or Ambion as indicated. Test sample (10 ul) was mixed with 1× buffer (90 ul) for a final volume of 100 ul with 50 pmoles of Substrate SEQ ID NO:30 in 0.5 ml RNase-free microtubes. Assay Mixes were incubated 60 minutes at 37° C. and visually examined under UV excitation for fluorescence emission. After scoring for results, 1 ul (1 ug) of RNase A was added to each tube. The Assay was incubated an additional 5 minutes at 37° C. and re-scored. The addition of RNase A represents a control for the absence of an Assay inhibitor and validates negative results. The “plus RNase A” control was omitted whenever the primary assay was already positive.
Table 9: RNase testing of commercially available reagents. A series of commercially available reagents were diluted 1:10 with Assay Buffer to a final volume of 100 ul. An RNase detection assay was performed using the method of the invention with Substrate oligonucleotide SEQ ID NO:30. Reactions were examined for fluorescence emission by visual inspection using an ultraviolet (UV) light source for excitation. Results were scored as +++, ++, +, or − based on relative signal intensity. As a control, RNase A (1 ug) was added to negative reactions and the Assay was re-scored. ND=not done.

[2] = target: T1, Ribonuclease A (Bos taurus, UniProt P61823); test: Visual detection ribonuclease assay, cleavage of Substrate ODN by RNase A; format: biochemical, mammalian; design: key to Sensitivity of Substrate ODN to Ribonuclease A, relative signal intensity: +++ = maximum intensity; ++ = moderate intensity; + = faint but above background; − = negative (identical to background); conditions: visual inspection, UV excitation, Substrate 500 nM, 37° C. 60 minutes
T1 sequence (P61823 27-150): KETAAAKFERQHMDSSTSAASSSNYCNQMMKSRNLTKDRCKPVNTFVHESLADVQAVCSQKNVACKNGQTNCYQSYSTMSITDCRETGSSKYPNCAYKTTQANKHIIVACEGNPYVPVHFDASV
Procedure: Nuclease assays were conducted using the methods of the invention. SEQ ID NO:2 and SEQ ID NO:30 oligonucleotides were individually mixed in 1× Assay Buffer at a concentration of 500 nM (50 pmoles ODN in 100 ul volume) in thin-walled, UV transparent microtubes. RNase A (1 ul, diluted to 0;1 ug/ul) was added to the respective Assay Mixes. […] Assays were set up directly in microtubes as follows:
Assay Mixes were incubated at room temperature for 10 minutes. Assays were visually examined for fluorescence emission directly in the assay tubes without further manipulation. Tubes were suspended above an ultraviolet light source, visually inspected, and photographed using a digital camera. […] The “positive” and “control” reactions appeared markedly different and were easily distinguished. […] The “positive” and “control” reactions were not markedly different to visual inspection.
(§1) Nuclease assays were conducted using the method of the invention with both visual and fluorometric detection methods. Substrates were individually mixed in 1× Assay Buffer at a concentration of 50 nM (50 pmoles oligonucleotide in 1 ml volume) for fluorometric detection or at a concentration of 500 nM (50 pmoles of oligonucleotide in 100 ul volume) for visual detection. Test nucleases were added to respective Assay Mixes beginning at 1 ul stock reagent and proceeding with a 1:10 serial dilution until undetectable. Reaction mixes were incubated at 37° C. for 60 minutes. Fluorometric detection was performed as outlined in Example 2. Visual detection was performed as outlined in Example 1.
(§2) Table 6: Sensitivity of different Substrate ODNs to Ribonuclease A. A series of Substrate ODNs were synthesized and tested for sensitivity to RNase A degradation. Stock enzyme was serial diluted to achieve final concentrations of 1 ng/ml, 100 pg/ml, and 10 pg/ml as indicated. Reactions were examined for fluorescence emission by visual inspection using an ultraviolet (UV) light source for excitation. Results were scored as +++, ++, +, or − based on relative signal intensity.
(§3) It is commonly accepted that fluorometry provides for high sensitivity. To be useful, the visual method must also offer high sensitivity. Assays were conducted using the method of the invention with visual detection. Substrate SEQ ID NO:30 was mixed in 1× Assay Buffer at a concentration of 500 nM (50 pmoles ODN in 100 ul volume) in thin-walled, UV transparent tubes. […] Dilutions of stock RNase A, RNase 1, and RNase T1 were made in water. Undiluted and diluted nuclease (1 ul) was added to respective 100 ul Assay Mixes resulting in final dilution factors of 10^−2, 10^−3, 10^−4, 10^−5, 10^−6, and 10^−7. Assays were incubated at room temperature for 10 minutes and visually examined for fluorescence emission with UV excitation. […] The experiment took about 30 minutes to perform, including 15 minutes to set-up serial dilutions, 10 minutes incubation, and 5 minutes to visualize and photograph. Thus the method of the invention allows for a rapid, simple, and convenient visual assay for the presence of ribonuclease activity.

[3] = target: T2, Ribonuclease T1 (Aspergillus oryzae, UniProt P00651); test: Visual detection ribonuclease assay, cleavage of Substrate ODN by RNase T1; format: biochemical; design: key to Sensitivity of Substrate ODN to Ribonuclease T1, relative signal intensity: +++ = maximum intensity; ++ = moderate intensity; + = faint but above background; − = negative (identical to background); conditions: visual inspection, UV excitation, Substrate 500 nM, 37° C. 60 minutes
T2 sequence (P00651 27-130): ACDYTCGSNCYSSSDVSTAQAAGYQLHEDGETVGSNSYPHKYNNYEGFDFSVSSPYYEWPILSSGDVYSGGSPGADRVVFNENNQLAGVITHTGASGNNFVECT
Procedure: as §1
as §2, with “Table 7:” for “Table 6:”, “Ribonuclease T1.” for “Ribonuclease A.”, “RNase T1” for “RNase A”, “of 0.001 units/ml, 0.0001 units/ml,” for “of 1 ng/ml, 100 pg/ml,”, “and 0.00001 units/ml” for “and 10 pg/ml”
as §3

Substance	Assay Results (RNase activity in reagent, relative signal intensity) [1]	Sensitivity of Substrate ODN to Ribonuclease A, relative signal intensity ([2]; RNase A 10 pg/ml)	Sensitivity of Substrate ODN to Ribonuclease A, relative signal intensity ([2]; RNase A 100 pg/ml)	Sensitivity of Substrate ODN to Ribonuclease A, relative signal intensity ([2]; RNase A 1 ng/ml)	Sensitivity of Substrate ODN to Ribonuclease T1, relative signal intensity ([3]; RNase T1 10^−3 units/ml)	Sensitivity of Substrate ODN to Ribonuclease T1, relative signal intensity ([3]; RNase T1 10^−4 units/ml)	Sensitivity of Substrate ODN to Ribonuclease T1, relative signal intensity ([3]; RNase T1 10^−5 units/ml)
T7 RNA Polymerase: commercial enzyme reagent from Ambion, sold as RNase-free	−						
Hind III: commercial enzyme from New England Biolabs, sold as RNase-free	−						
5′ Fluorescein-AgaAA-Dabcyl 3′ (NAGAAAN; 5' fluorescein and 3' Dabcyl labels, nucleotide chemistry not given here) [SEQ ID NO:9]		−	−	−	+	+	−
5′ Fluorescein-AcggA-Dabcyl 3′ (NACGGAN; 5' fluorescein and 3' Dabcyl labels, nucleotide chemistry not given here) [SEQ ID NO:14]		−	+	++	+++	+++	+
5′ Fluorescein-AagucA-Dabcyl 3′ (NAAGUCAN; 5' fluorescein and 3' Dabcyl labels, nucleotide chemistry not given here) [SEQ ID NO:24]		−	+	+++	++	+	−
5′ Fluorescein-AacAA-Dabcyl 3′ (NAACAAN; 5' fluorescein and 3' Dabcyl labels, nucleotide chemistry not given here) [SEQ ID NO:8]		+	+++	+++	−	−	−
5′ Fluorescein-AgcuaA-Dabcyl 3′ (NAGCUAAN; 5' fluorescein and 3' Dabcyl labels, nucleotide chemistry not given here) [SEQ ID NO:22]		−	++	+++	+++	+	−
Super Taq: commercial enzyme reagent from Ambion, sold as RNase-free	−						
5′ Fluorescein-AgucaA-Dabcyl 3′ (NAGUCAAN; 5' fluorescein and 3' Dabcyl labels, nucleotide chemistry not given here) [SEQ ID NO:23]		−	+	+++	++	−	−
5′ Fluorescein-AAaAA-Dabcyl 3′ (NAAAAAN; 5' fluorescein and 3' Dabcyl labels, nucleotide chemistry not given here) [SEQ ID NO:6]		−	−	−	−	−	−
